Assay [1] has as its target E. coli LpxC enzyme (Escherichia coli, UniProt P0A725). Conditions: cited from earlier work.
Assay [2] deals with LpxC from P. aeruginosa (Pseudomonas aeruginosa, UniProt P47205). Conditions: cited from earlier work.
Assay [3] has as its system EnvA1 mutant protein (LpxC, His 19 replaced by Serine). Conditions: His 19 replaced by a Serine; cited from earlier work.
Assay [4] deals with P. aeruginosa PA01.
The test system of assay [5] is 'promoter swapped' P. aeruginosa lpxC mutants. Briefly: MIC determinations for 'promoter swapped' mutants. The format is cell-based. Here is the method:
MIC determinations for ‘promoter swapped’ mutants. Single colonies of DH5α, PA01 and each promoter swap strain were picked and grown in LB at 37° C. with shaking for approximately 4 hours. Assuming that an OD600 reading of 1.0 is equivalent to 10^9 cells/ml, dilutions were made of all cultures to 5×10^5 cells/ml. 200 μl of each diluted culture was added to each well where a two-fold serial dilution of inhibitor had been placed. The 96-well plates were incubated at 37° C. overnight and their OD600 determined using the Spectramax Plus (Molecular Devices) plate reader.
To confirm the effect of the arabinose-sensitive promoter in regulating the lpxC expression in the swapped mutants, MIC determinations were performed as above, except that arabinose was added to induce expression of the chromosomal locus and override the effects of the plasmid borne lpxC. In this case the stationary-phase overnight bacterial culture was diluted to 5×10^5 cells/ml in LB containing Arabinose to a final concentration of 0.2% (a 20% stock made up in water).
Using the ‘promoter swap’ technique as described in the methods, it was possible to replace expression from the wild type chromosomal copy of P. aeruginosa lpxC, with expression solely from a plasmid borne copy. […]

For assay [6], the system named is E. coli. Conditions: cited from earlier work.
Assay [7] concerns E. coli. Conditions: lethal intraperitoneal dose of E. coli; cited from earlier work.
The subject of assay [8] is E. coli DH5α. Description: Growth curves with inhibitor, E. coli. The format is cell-based.
Protocol: (§3) Growth curves. Bacterial cultures were prepared by diluting stationary phase overnight cultures to an OD600 of 0.1 in 5 ml of LB. The inhibitor, L-161,240, was resuspended in DMSO to a final concentration of 10 mg/ml and added to the bacterial cultures to a final concentration of 50 μg/ml or 10 μg/ml. In the samples without inhibitor, DMSO was added to keep the final concentration of DMSO equivalent between samples. The cultures were incubated with shaking and 0.8 ml was taken for OD600 readings over the course of the experiment.
The test system of assay [9] is E. coli JBK-1 carrying lpxC from E. coli. Briefly: Growth at 42° C. of E. coli JBK-1 carrying the lpxC copy from E. coli. The format is cell-based. Conditions: data not shown. As to the method: (§1) Growth curves. Bacterial cultures were prepared by diluting stationary phase overnight cultures to an OD600 of 0.1 in 5 ml of LB. […] The cultures were incubated with shaking and 0.8 ml was taken for OD600 readings over the course of the experiment. DH5α, PA01, and PA0200 (Schweizer, H. P. 1998. Intrinsic resistance to inhibitors of fatty acid biosynthesis in Pseudomonas aeruginosa is due to efflux: application of a novel technique for generation of unmarked chromosomal mutations for the study of efflux systems. Antimicrob. Agents Chemother. 42: 394-398) were all grown at 37° C. In the cases where temperature sensitive JBK strains were being assayed, the cultures were grown at 42° C. for both the overnight and the time course cultures.
(§2) The E. coli strain JBK-1/pKD6 contains the chromosomal lpxC gene disrupted with a kan element and a wild type copy of E. coli lpxC on the temperature-sensitive replicon pKD6. The strain was constructed as described by Sorensen et al., 1996. Since lpxC is essential for growth, this strain is not viable at 42° C. because the functional copy is on the temperature sensitive replicon.

Assay [10] has as its system P. aeruginosa PAO 200 (MexAB-OprM efflux mutant). Briefly: Growth curves with inhibitor, efflux pump mutant. The class given is cell-based. Conditions: FIG. 4. The text has this: L-161, 240 is a substrate for the major drug efflux pump of P. aeruginosa. […] However the only one that is constitutively expressed to a high degree in the wild type strains is MexAB-OprM (Kohler, T., M. Michea-Hamzehpour, and U. Henze. 1997. Characterization of MexE-MexF-OprN, a positively regulated multidrug efflux system of Pseudomonas aeruginosa. Mol. Microbiol. 23: 345-354). Therefore, mutants of this efflux system can be used to evaluate the consequences of diminished efflux pump activity. These mutants would be expected to be highly sensitive to a number of antibiotics.

The subject of assay [11] is P. aeruginosa. Conditions: cited from earlier work.
Assay [12] relates to P. aeruginosa PA01. Briefly: Growth curves with inhibitor, P. aeruginosa wild type. The class given is cell-based.
Protocol: as §3
Assay [13] relates to E. coli JBK-1 carrying lpxC from P. aeruginosa. Here is the method:
as §1, §2

The values that follow come from US7629141B2, “Essential and important genes of Pseudomonas aeruginosa and the use thereof to design or identify antibacterial agents” (priority 2001, dated 2009).

LpxC from P. aeruginosa, sequence (P47205 whole entry): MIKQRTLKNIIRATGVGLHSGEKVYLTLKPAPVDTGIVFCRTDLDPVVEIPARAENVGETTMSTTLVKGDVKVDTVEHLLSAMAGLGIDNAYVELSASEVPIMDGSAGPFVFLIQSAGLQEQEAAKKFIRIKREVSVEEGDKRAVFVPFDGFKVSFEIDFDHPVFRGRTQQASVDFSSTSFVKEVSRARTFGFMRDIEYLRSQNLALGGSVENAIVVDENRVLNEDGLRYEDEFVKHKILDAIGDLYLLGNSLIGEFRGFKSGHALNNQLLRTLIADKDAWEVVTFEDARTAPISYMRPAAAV
E. coli LpxC enzyme, sequence (P0A725 whole entry): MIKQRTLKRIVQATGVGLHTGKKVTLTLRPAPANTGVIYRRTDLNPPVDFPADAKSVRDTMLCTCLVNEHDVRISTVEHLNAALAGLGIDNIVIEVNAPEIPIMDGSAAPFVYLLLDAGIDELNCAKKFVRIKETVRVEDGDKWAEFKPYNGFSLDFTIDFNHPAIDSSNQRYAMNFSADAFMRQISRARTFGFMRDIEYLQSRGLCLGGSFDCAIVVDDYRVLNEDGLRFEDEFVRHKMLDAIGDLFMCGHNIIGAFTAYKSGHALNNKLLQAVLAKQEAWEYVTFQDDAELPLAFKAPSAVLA

As for `O=C(O)CN(CCN(CC(=O)O)CC(=O)O)CC(=O)O` [EDTA], the “sensitivity of E. coli LpxC enzyme to EDTA” value in [1] is “not sensitive”. Moreover, in assay [2], the “EDTA concentration significantly inhibiting P. aeruginosa LpxC enzyme” value is no more than 2 µM. Further, in assay [3], the “sensitivity of envA1 mutant LpxC to EDTA” value is on record as “sensitive”.

In the case of `CN(C)[C@@H]1C(O)=C(C(N)=O)C(=O)[C@@]2(O)C(O)=C3C(=O)c4c(O)cccc4[C@@](C)(O)[C@H]3C[C@@H]12` [tetracycline], the “lowering of MIC for P. aeruginosa by PMBN” value in assay [4] is on record as “more than 16 fold”.

For `CCCc1cc(C2=N[C@@H](C(=O)NO)CO2)cc(OC)c1OC` [L-161,240], in [5] (LB containing 0.2% arabinose, vector with E. coli or P. aeruginosa lpxC), the “sensitivity of all promoter swap transformants with chromosomal lpxC induced” value is listed as “resistant to killing”. In assay [5] (promoter swap, native lpxC shut off, plasmid-borne E. coli lpxC, no arabinose), the “sensitivity of P. aeruginosa expressing only E. coli LpxC versus wild type / P. aeruginosa enzyme” value was “much more sensitive”. Further, in assay [2], the “inhibition of LpxC from P. aeruginosa” value was “only at very high concentrations, and even then it did so poorly”. For the same compound, in [6], the “minimal inhibitory concentration against E. coli” value was “about 1 microgram per milliliter”. Besides, the “outcome in mice infected with lethal dose of E. coli” value in [7] is “cured”. Also, the “prevention of growth of E. coli” value in assay [8] is listed as “effective in preventing growth”. For the same compound, the “sensitivity of P. aeruginosa in combination with PMBN” value in [4] is recorded as “remained unchanged”. Besides, the “sensitivity of JBK-1 carrying E. coli lpxC to killing” value in [9] is listed as “still sensitive to killing by a slightly higher concentration”. In addition, the “sensitivity of efflux mutant PAO 200 compared with wild type” value in assay [10] is given as “not more sensitive”. The “effect on bacterial growth of P. aeruginosa” value in assay [11] is recorded as “no effect on bacterial growth”. Moreover, the “prevention of growth of P. aeruginosa” value in assay [12] was “completely ineffective”. The “inhibitor concentration to which JBK-1 carrying P. aeruginosa lpxC is resistant” value in [13] (42° C., data not shown) was greater than 50 µg/mL. Also, the “resistance level relative to the MIC of the wild type organisms” value in assay [13] (JBK-1 carrying P. aeruginosa lpxC) is “about 50 times”.
